Data from BigSolDB 2.1.

c1ccc2c(c1)Nc1ccccc1S2
solubility (mole fraction)
Details	298.2 K	308.2 K	318.2 K	328.2 K	338.2 K
in ethanol	0.00876	0.01	0.0122	0.0145	–
in propylene glycol	0.00416	0.0054	0.00656	0.00763	0.00852
in water	1.56e-07	1.98e-07	2.52e-07	3.58e-07	4.91e-07
